Assays:
[1] = tested on: Vero cells; assay: Vero cell viability, MTT test, 72 h; type: cell-based, African green monkey; conditions: MTT; for Viability % ±s.d.: +F127 (Pluronic F-127), Vero, 3 days
Method: Before testing antiviral activity, the effect of porphyrins dissolved in PBS and Pluronic F-127 on the viability of Vero cells was evaluated. Cells were incubated for 72 h using different concentrations of porphyrins (0.39–100 μM). Viability was assessed using the MTT test (Figure S13, Table S1, Supplementary Information). The viability of Vero cells depends on the porphyrins’ structure and formulation.
Cell viability was assessed by MTT reduction assay. Briefly, confluent monolayer Vero cells in 96-well plates (15000 cells/well) were incubated for 72 h with different concentrations of the compounds ranging from 0.39 µM to 100 µM in DMEM-1% FCS at 36.8 °C in 5% CO2 atmosphere. Next, cells were incubated for 1 h with 1.0 mg/mL of 3-(4,5-dimethylthiazol-2-y1)-2,5-diphenyltetrazolium bromide (MTT, PanEco, Moscow, Russia) at 36.8 °C, and then the solution was removed, and precipitated formazan was diluted in DMSO (PanEco, Moscow, Russia). The solution was read on a spectrophotometer at 540 nm. For each concentration, the average cell viability was calculated from the data of three experiments with three replicates each and was expressed as a percentage compared to the untreated cells (100%).
Table s1. Vero cell viability after exposure to 3a, 3b, TMEPyP compounds dissolved in PBS and Pluronic F-127. Different concen-
trations of compounds were applied to the cell monolayer and after incubation for 3 days, the number of living cells was calculated
in the MTT test. Each point represents the mean ± standard deviation of three experiments with […] each. n.d. –not done.
Compound Concentration, µM/L Viability % ±s.d.

[2] = Micelle size of Pluronic F-127 formulations by dynamic light scattering; type: physicochemical; conditions: Pluronic F-127 micelles, concentration 3·10^−6 M
Method: The size of obtained micelles for the compounds 3a,b was determined by the dynamic light scattering (DLS) method. The micelle size for compounds 3a,b was 17.53 nm and 14.69 nm, respectively, at concentrations of 3·10^−6 M (Figure 4a,b). It has previously been reported that a similar micelle size increased the efficiency and circulation of the encapsulated drug in the blood due to the small scale, which avoided the capture of nanoparticles by the reticular endothelial system.
NMR (^1H and ^13C) spectra of the test solutions in CDCl3 or (CD3OD) were recorded on a Bruker MSL-300 pulse Fourier transform spectrometer (Bruker, Billerica, MA, USA) at frequencies of 300.3 and 75.49 MHz, respectively, with internal deuterium stabilization. Tetramethylsilane was used as an external standard. IR spectra (4000–500 cm^–1) were recorded on Infralyum FT 02 Fourier spectrometer (Lumex Instruments Research and Production Company, Moscow, Russia) with a resolution of 1 cm^−1. Samples were prepared as KBr tablets. Dynamic light scattering was measured using Malvern Zetasizer Nano ZS (Malvern, United Kingdom). […] Mass spectra were recorded using an 1100 LCMSD liquid chromatograph (Agilent Technologies, Santa Clara, CA, USA) equipped with a mass spectrometric chemical ionization detector at atmospheric pressure (HIAD, APCI, ESI) and with a UV spectrophotometric detector (DAD). […]

## O=C(CCCCC[n+]1ccccc1)Oc1ccc(-c2c3nc(c(-c4ccc(OC(=O)CCCCC[n+]5ccccc5)cc4)c4ccc([nH]4)c(-c4ccc(OC(=O)CCCCC[n+]5ccccc5)cc4)c4nc(c(-c5ccc(OC(=O)CCCCC[n+]6ccccc6)cc5)c5ccc2[nH]5)C=C4)C=C3)cc1 [3b, 5,10,15,20-tetrakis(4-(6-pyridyl-n-hexanoyl)oxyphenyl)porphyrin tetrabromide]
[1]; 0.39 µM/L
  Viability % ±s.d.: 97.6±6.9%
[1]; 0.78 µM/L
  Viability % ±s.d.: 81.3±10.8%
[1]; 1.56 µM/L
  Viability % ±s.d.: 82.7±19.5%
[1]; 3.13 µM/L
  Viability % ±s.d.: 79.6±9.6%
[1]; 6.25 µM/L
  Viability % ±s.d.: 63.4±8.1%
[1]; 12.50 µM/L
  Viability % ±s.d.: 67.7±11.5%
[1]; 25 µM/L
  Viability % ±s.d.: 58.4±4.4%
[1]; 50 µM/L
  Viability % ±s.d.: 41.3±2.7%
[1]; 100 µM/L
  Viability % ±s.d.: 25.0±1.9%
[1]; Pluronic F-127 (F127) micellar formulation, Vero cells, 72 h
  CC50: 27 µM
[2]
  micelle size (DLS): 14.69 nm

Source: publication PMC7999199, “Novel Cationic Meso-Arylporphyrins and Their Antiviral Activity against HSV-1” (Pharmaceuticals, 2021)
